Reference: patent US20100175140A1, “Leucine-rich repeat kinase (LRRK2) drosophila model for parkinson's disease: wildtype1 (WT1) and G2019S mutant flies” (The Johns Hopkins University, priority 2008, published 2010)

System: ddc-GAL4;G2019S-2 flies
Assay: Climbing assay (negative geotaxis) of LRRK2-G2019S transgenic flies treated with L-DOPA
Format: in vivo, Drosophila melanogaster
Settings: 5 weeks of age, 1 mM L-DOPA for 10 days, P<0.05 vs untreated (FIG. 2E)
Source text: We determined locomotor ability using a climbing assay (negative geotaxis assay) as described previously (23). Cohorts of 60 flies from each genotype were subjected to the assay weekly from 1 week to the time of death. The tested flies were age-matched, randomly selected, anesthetized, and placed in a vertical plastic column (length, 25 cm; diameter, 1.5 cm). After a 30-min recovery from CO2 exposure, flies were gently tapped to the bottom of the column. We counted and calculated the percentage of flies that could climb to or above the median line of the cylinder in 10 seconds. Each week, the assay was repeated three times.

## N[C@@H](Cc1ccc(O)c(O)c1)C(=O)O [L-DOPA]
  locomotor activity (climbing assay): significantly improved
